Measurements: patent publication US20160120863A1, “SLC2A TRANSPORTER INHIBITORS” (IOMET PHARMA LTD., priority 2013, published 2016)

Biological target: T1, human GLUT1 (Homo sapiens, UniProt P11166)
T1 construct: expressed in transfected cells
T1 sequence (P11166 1-492): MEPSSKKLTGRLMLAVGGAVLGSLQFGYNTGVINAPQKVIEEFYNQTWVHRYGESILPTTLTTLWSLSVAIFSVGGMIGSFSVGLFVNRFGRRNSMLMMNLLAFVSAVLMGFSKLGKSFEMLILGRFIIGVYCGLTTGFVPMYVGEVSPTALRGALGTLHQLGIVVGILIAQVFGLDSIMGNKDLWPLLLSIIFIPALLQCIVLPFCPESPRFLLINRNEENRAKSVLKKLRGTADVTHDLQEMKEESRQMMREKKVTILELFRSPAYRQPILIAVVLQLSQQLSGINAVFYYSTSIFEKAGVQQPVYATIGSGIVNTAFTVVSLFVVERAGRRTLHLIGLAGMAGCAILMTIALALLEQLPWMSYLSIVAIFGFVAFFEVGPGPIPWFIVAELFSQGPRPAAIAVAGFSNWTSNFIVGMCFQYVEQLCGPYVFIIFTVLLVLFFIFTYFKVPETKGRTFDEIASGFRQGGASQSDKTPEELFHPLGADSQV
Experiment: [3H]-deoxy-D-glucose uptake assay, GLUT1
Format: cell-based
Details: [3H]-deoxy-D-glucose uptake in HEK293 cells stably expressing human GLUT1
Procedure: HEK293 cells were engineered to stably express either human GLUT1, GLUT2, GLUt3 or GLUT4 by transfection with the pReceiver-Lv105 plasmid, containing either hGLUT1, hGLUT2, hGLUT3, or hGLUT4 gene constructs with lipofectamine 2000, hGLUT1- hGLUT2- hGLUT3- or hGLUT4-overexpressing polyclonal populations were isolated under purinomycin selective pressure (1 μg/ml) and maintained in Dulbecco's modified Eagle's medium supplemented with 1 μg/ml purinomycin+10% foetal bovine serum (FBS).
60,000 cells per well were seeded overnight into poly-D-lysine coasted 96-well plates. […] 90 μl of test compounds were added in glucose-free uptake buffer and cells were incubated at 37° C. for 30 min.
Cells were then washed twice with ice-cold PBS and 100 μl of Microscint-20 was added per well. Glucose uptake was quantified with a scintillation counter. The half maximal inhibitory concentration (IC50) (a measure of the effectiveness of the test compound in inhibiting glucose uptake) was determined.

| SMILES | GLUT1 pIC50 |
| --- | --- |
| Clc1ccc(-c2nc3ccc(-c4ccccc4)cn3c2CNC2CCOCC2)cc1 [Compound 188] | ++ (pIC50 5.00-5.99) |
| CC(C)(C)c1ccc(C(=O)N2CCN(Cc3c(-c4ccc(Cl)cc4)nc4ccc(-c5ccccc5)cn34)CC2)cc1 [Compound 42] | + (pIC50 4.00-4.99) |
| Clc1ccc(-c2nc3ccc(-c4ccccc4)cn3c2CN2CCCCC2)cc1 [Compound 98] | + (pIC50 4.00-4.99) |
| Clc1ccc(-c2nc3ccc(Cc4ccccc4)cn3c2CN2CCOCC2)cc1 [Compound 203] | ++ (pIC50 5.00-5.99) |
| O=C(c1c(-c2ccc(Cl)cc2)nc2ccc(-c3ccccc3)cn12)N1CCNCC1 [Compound 291] | +− (pIC50 < 4.00) |
| CC(C)C(=O)N1CCN(Cc2c(-c3cccc([N+](=O)[O-])c3)nc3ccc(-c4ccccc4)cn23)CC1 [Compound 55] | ++ (pIC50 5.00-5.99) |
| O=C(c1cc[nH]c(=O)c1)N1CCN(Cc2c(-c3ccc(Cl)cc3)nc3ccc(-c4ccccc4)cn23)CC1 [Compound 244] | +++ (pIC50 ≧ 6.00) |
| O=C(c1ccc(=O)[nH]c1)N1CCN(Cc2c(-c3ccc(Cl)cc3)nc3ccc(-c4ccccc4)cn23)CC1 [Compound 230] | +++ (pIC50 ≧ 6.00) |
| CCOC(=O)CN1CCN(Cc2c(-c3ccc(Cl)cc3)nc3ccc(-c4ccccc4)cn23)CC1 [Compound 211] | +− (pIC50 < 4.00) |
| CCC(=O)N1CCN(Cc2c(-c3ccc(Cl)cc3)nc3ccc(-c4ccccc4)cn23)CC1 [Compound 62] | +++ (pIC50 ≧ 6.00) |
| CCNC(=O)c1ccc2nc(-c3ccc(Cl)cc3)c(CN3CCOCC3)n2c1 [Compound 118] | + (pIC50 4.00-4.99) |
| O=C(c1ccc(Cl)cc1)N1CCN(Cc2c(-c3ccc(Cl)cc3)nc3ccc(-c4ccccc4)cn23)CC1 [Compound 183] | +++ (pIC50 ≧ 6.00) |
| Cc1ccc(-c2nc3ccc(-c4ccccc4)cn3c2CN2CCN(C(=O)c3ccc(F)cc3)CC2)cc1 [Compound 50] | +++ (pIC50 ≧ 6.00) |
| CC(C)(C)CC(=O)N1CCN(Cc2c(-c3cccc([N+](=O)[O-])c3)nc3ccc(-c4ccccc4)cn23)CC1 [Compound 58] | + (pIC50 4.00-4.99) |
| COc1cccc(-c2nc3ccc(-c4ccccc4)cn3c2CN2CCN(C(=O)c3cccc(F)c3)CC2)c1 [Compound 52] | +++ (pIC50 ≧ 6.00) |
| COc1ccc(-c2nc3ccc(-c4ccccc4)cn3c2CN2CCOCC2)cc1 [Compound 101] | ++ (pIC50 5.00-5.99) |
| CC(=O)N1CCN(Cc2c(-c3ccc(Cl)cc3)nc3ccc(N)cn23)CC1 [Compound 276] | +− (pIC50 < 4.00) |
| COCC(=O)N1CCN(Cc2c(-c3ccc(Cl)cc3)nc3ccc(N)cn23)CC1 [Compound 280] | +− (pIC50 < 4.00) |
| O=C(c1cccc(F)c1)N1CCN(Cc2c(-c3ccc(Cl)cc3)nc3ccc(C4CC4)cn23)CC1 [Compound 178] | +++ (pIC50 ≧ 6.00) |
| COc1cccc(-c2nc3ccc(-c4ccccc4)cn3c2CN2CCN(C(=O)C3CC3)CC2)c1 [Compound 26] | ++ (pIC50 5.00-5.99) |

| SMILES | GLUT1 pIC50 |
| --- | --- |
| CC(C)(C)NC(=O)N1CCN(Cc2c(-c3ccc(Cl)cc3)nc3ccc(-c4ccccc4)cn23)CC1 [Compound 41] | ++ (pIC50 5.00-5.99) |
| CC(C)(C)CC(=O)N1CCN(Cc2c(-c3ccc([N+](=O)[O-])cc3)nc3ccc(-c4ccccc4)cn23)CC1 [Compound 38] | ++ (pIC50 5.00-5.99) |
| COc1ccc2nc(-c3ccc(Cl)cc3)c(CN3CCOCC3)n2c1 [Compound 154] | + (pIC50 4.00-4.99) |
| CN(CC(=O)N(C)C)Cc1c(-c2ccc(Cl)cc2)nc2ccc(-c3ccccc3)cn12 [Compound 228] | +− (pIC50 < 4.00) |
| CCOC(=O)c1ccc2nc(-c3ccc(Cl)cc3)c(CN3CCOCC3)n2c1 [Compound 163] | + (pIC50 4.00-4.99) |
| N#Cc1cccc(C(=O)N2CCN(Cc3c(-c4ccc(Cl)cc4)nc4ccc(-c5ccccc5)cn34)CC2)c1 [Compound 193] | +++ (pIC50 ≧ 6.00) |
| Clc1ccc(-c2nc3ccc(Cl)cn3c2CN2CCCCC2)cc1 [Compound 5] | + (pIC50 4.00-4.99) |
| Clc1ccc(-c2nc3ccc(-c4nccs4)cn3c2CN2CCOCC2)cc1 [Compound 287] | +++ (pIC50 ≧ 6.00) |
| COc1cccc(-c2nc3ccccn3c2CN2CCN(C(=O)C3CCC3)CC2)c1 [Compound 208] | +− (pIC50 < 4.00) |
| CS(=O)(=O)Nc1ccc2nc(-c3ccc(Cl)cc3)c(CN3CCOCC3)n2c1 [Compound 215] | ++ (pIC50 5.00-5.99) |
| COc1ccc(-c2ccc3nc(-c4ccc(Cl)cc4)c(CN4CCOCC4)n3c2)cc1 [Compound 86] | + (pIC50 4.00-4.99) |
| COc1cccc(-c2nc3ccc(-c4ccccc4)cn3c2CN2CCN(C(=O)C3CCCC3)CC2)c1 [Compound 35] | +++ (pIC50 ≧ 6.00) |
| c1ccc(-c2ccc3nc(-c4ccccc4)c(CN4CCOCC4)n3c2)cc1 [Compound 103] | + (pIC50 4.00-4.99) |
| COc1cccc(-c2nc3ccc(Br)cn3c2CN2CCN(C(=O)C3CCC3)CC2)c1 [Compound 205] | ++ (pIC50 5.00-5.99) |
| CN1CCN(Cc2c(-c3ccc(Cl)cc3)nc3ccc(-c4ccccc4)cn23)CC1 [Compound 125] | + (pIC50 4.00-4.99) |
| O=C(c1cnccn1)N1CCN(Cc2c(-c3ccc(Cl)cc3)nc3ccc(C4CC4)cn23)CC1 [Compound 263] | +++ (pIC50 ≧ 6.00) |
| O=C(Cc1ccc(F)cc1)N1CCN(Cc2c(-c3ccc(Cl)cc3)nc3ccc(-c4ccccc4)cn23)CC1 [Compound 63] | ++ (pIC50 5.00-5.99) |
| O=C(c1ccncc1)N1CCN(Cc2c(-c3ccc(Cl)cc3)nc3ccc(C4CC4)cn23)CC1 [Compound 196] | +++ (pIC50 ≧ 6.00) |
| FC(F)(F)c1ccc(-c2nc3ccc(-c4ccccc4)cn3c2CN2CCOCC2)cc1 [Compound 112] | ++ (pIC50 5.00-5.99) |
| CN1CCN(Cc2c(-c3ccc(Cl)cc3)nc3ccc(-c4ccccc4)cn23)CC1=O [Compound 248] | ++ (pIC50 5.00-5.99) |

| SMILES | GLUT1 pIC50 |
| --- | --- |
| O=C(c1ccncc1)N1CCN(Cc2c(-c3ccc(Cl)cc3)nc3ccc(-c4ncon4)cn23)CC1 [Compound 281] | +++ (pIC50 ≧ 6.00) |
| Clc1ccc(-c2nc3ccc(-c4ccccc4)cn3c2CN2CCn3ncnc3C2)cc1 [Compound 175] | ++ (pIC50 5.00-5.99) |
| CCC(=O)N1CCN(Cc2c(-c3ccc(Cl)cc3)nc3ccc(C4CC4)cn23)CC1 [Compound 195] | ++ (pIC50 5.00-5.99) |
| Clc1ccc(-c2nc3ccc(-c4cccnc4)cn3c2CN2CCOCC2)cc1 [Compound 83] | ++ (pIC50 5.00-5.99) |
| Fc1cccnc1-c1ccc2nc(-c3ccc(Cl)cc3)c(CN3CCOCC3)n2c1 [Compound 251] | ++ (pIC50 5.00-5.99) |
| N#Cc1ccccc1-c1ccc2nc(-c3ccc(Cl)cc3)c(CN3CCN(C(=O)c4cnccn4)CC3)n2c1 [Compound 221] | +++ (pIC50 ≧ 6.00) |
| COCCNC(=O)CCc1c(-c2ccc([N+](=O)[O-])cc2)nc2ccc(-c3ccccc3)cn12 [Compound 17] | +− (pIC50 < 4.00) |
| Clc1ccc(-c2nc3ccc(-c4ccncc4)cn3c2CN2CCOCC2)cc1 [Compound 82] | ++ (pIC50 5.00-5.99) |
| Clc1ccc(-c2nc3ccccn3c2CN2CCOCC2)cc1 [Compound 3] | ++ (pIC50 5.00-5.99) |
| CC(=O)NC1CCN(Cc2c(-c3ccc(Cl)cc3)nc3ccc(-c4ccccc4)cn23)CC1 [Compound 210] | ++ (pIC50 5.00-5.99) |
| Cn1ccnc1C(=O)N1CCN(Cc2c(-c3ccc(Cl)cc3)nc3ccc(-c4ccccc4)cn23)CC1 [Compound 246] | ++ (pIC50 5.00-5.99) |
| Clc1ccc(-c2nc3ccc(-c4ccccn4)cn3c2CN2CCOCC2)cc1 [Compound 120] | ++ (pIC50 5.00-5.99) |
| O=C(C1CCC1)N1CCN(Cc2c(-c3ccc(Cl)cc3)nc3ccc(-c4ccccc4F)cn23)CC1 [Compound 202] | +++ (pIC50 ≧ 6.00) |
| COc1cccc(-c2nc3ccc(-c4ccccc4)cn3c2CN2CCOCC2)c1 [Compound 102] | ++ (pIC50 5.00-5.99) |
| CN1CCN(C(=O)c2c(-c3ccc(Cl)cc3)nc3ccc(-c4ccccc4)cn23)CC1 [Compound 283] | +− (pIC50 < 4.00) |
| CC(=O)N1CCCN(Cc2c(-c3ccc(Cl)cc3)nc3ccc(-c4ccccc4)cn23)CC1 [Compound 231] | +++ (pIC50 ≧ 6.00) |
| COCC(=O)N1CCN(Cc2c(-c3cccc(OC)c3)nc3ccc(-c4ccccc4)cn23)CC1 [Compound 57] | ++ (pIC50 5.00-5.99) |
| Clc1ccc(-c2nc3ccc(Br)cn3c2CN2CCOCC2)cc1 [Compound 124] | + (pIC50 4.00-4.99) |
| O=C(c1ccccn1)N1CCN(Cc2c(-c3ccc(Cl)cc3)nc3ccc(-c4ccccc4)cn23)CC1 [Compound 144] | +++ (pIC50 ≧ 6.00) |
